Measurements published in patent publication US11672771B2, “Beta-alethine, immune modulators, and uses thereof” (AxImmune, Inc., priority 2016, dated 2023).
“Also recorded” adds a separate entry of the source.

Assays:
MT-1 tumor xenograft = details: cited from earlier work
lymphoma = details: single agent; cited from earlier work
[1] = tested on: monocytes expressing PD-L1; assay: Ex vivo treatment of dog white blood cells, PD-L1 on monocytes by flow cytometry; format: cell-based; details: 0-1000 uM, 24 hours incubation, autologous serum; in some of the dogs (three healthy, three with cancer)
Procedure: In this study, white blood cells and serum were isolated from three healthy dogs and three dogs with cancer. Two dogs had osteosarcoma (Cancer_1 and Cancer_2 in FIG. 5) and one dog had melanoma (Cancer_3 in FIG. 5). Isolated white blood cells were grown in culture with autologous dog serum and varying doses of β-alethine (0-1000 uM). After 24 hours of incubation with β-alethine, monocytes were isolated and were examined for PD-L1 expression using flow cytometry analysis and a canine-specific anti-PD-L1 antibody. […] Further is documents cross species activity of BA. Current human clinical trials with immune checkpoint inhibitors also include antibodies antagonistic to PD-L1. Thus, β-alethine could also be used synergistically with anti-PD-L1 therapies.

NS-1 mouse myeloma = details: repeated administration as monotherapy soon after inoculation with relatively low doses of tumor; cited from earlier work
[2] = tested on: Cloudman melanoma cancer cell line; assay: Tumor size after s.c. and intratumoral β-alethine in mice with established Cloudman melanoma; format: in vivo, DBA mice
Procedure: At 38 days after tumor cell injection, the tumors were 17, 25 and 32 mm^2. At 38, 46, and 52 days after tumor cell injection, mice were treated with s.c. injections between the shoulder blades (distal to the tumor) of 30 mg/kg β-alethine in sterile saline (each s.c. injection of β-alethine is indicated by triangles in FIG. 2). Tumor size was monitored after each injection. […] However, the other two mice were then treated with β-alethine at 30 mg/kg intratumorally (i.t.) on day 55 post-tumor cell injection.
Further, when β-alethine was injected directly into the tumors, animals that previously had not responded or not fully responded via s.c. injection now responded, included apparent complete response.

[3] = tested on: human peripheral blood mononuclear cells; details: polarized Th1 response; cited from earlier work
Cloudman S-91 melanomas = details: melanomas already established; cited from earlier work
[4] = tested on: Cloudman melanoma cancer cell line; assay: Tumor growth with β-alethine, anti-PD-1 or both (concurrent or sequential) in Cloudman melanoma mice; format: in vivo; details: for tumor growth (tumor size): vs PBS, not statistically significant
Procedure: After confirming tumor growth, mice were randomized into the treatment groups listed in Table 4. n=10 mice in the Low Dose, High Dose, q14, untreated, and PBS groups; n=5 mice in PD-1 and BLT/PD-1 groups.
Tumor growth was measured 3 times a week. […] In the PBS treated group, there likely was an artificially low reading in the PBS group on day 23. A repeat reading of tumor size at day 25 confirmed the original trajectory. […] In addition, by day 25, the cancers in all these groups were growing at rates similar to the PBS or untreated control.
In order to further examine this dramatic result, long-term immunity after relapse was determined. In the mice treated with three doses of PD-1 alone at days 15, 18, and 21, tumor size increased through day 29 until the average size was almost 50 mm^2. […] At day 29, mice in the single agent anti-PD-1 treated group received a dose of 30 mg/kg β-alethine subcutaneously, and then weekly thereafter. […] Thus, in total, 9 of 10 mice in either the combination treatment group or the anti-PD-1 rescued with β-alethine group had complete regression of their tumors.

[5] = in vivo; cited from earlier work
[6] = tested on: CD4+ or CD8+ T cells that expressed PD-1, Lag3, or Tim3; assay: Checkpoint inhibitor expression and T cell percentages in blood 48 hours after one s.c. injection of β-alethine in Cloudman melanoma mice; format: in vivo, DBA mice
Procedure: It was hypothesized that β-alethine could affect checkpoint inhibitors expression in vivo in tumor bearing animals. […] As a baseline, blood from each animal was taken (“Cloudman preBLT”). Mice then were treated with one subcutaneous (s.c.) injection of 30 mg/kg β-alethine. 48 hours after receiving the s.c. injection of β-alethine, blood was taken (“Cloudman postBLT”). […]

multiple myeloma = multiple myeloma (Benson et al., 2012); cited from earlier work
[7] = Post-, 48 hours after β-alethine s.c.
[8] = Post-β-alethine, blood 48 hours after one s.c. injection of 30 mg/kg

NCCC(=O)NCCSSCCNC(=O)CCN [β-alethine, 3-amino-N-(2-{[2-(3-aminopropanamido)ethyl]disulfanyl}ethyl)propenamide]
effectiveness of chemotherapy for late stage breast cancer (MT-1 tumor xenograft; adjunct to chemotherapy): increase effectiveness of chemotherapy
toxicity due to the chemotherapy (MT-1 tumor xenograft; adjunct to chemotherapy): did not increase toxicity due to the chemotherapy
localized tumor growth (MT-1 tumor xenograft; breast cancer): effective in treating localized tumor growth
drug related adverse events (lymphoma): no local or systemic drug related adverse events; also recorded: no drug-related adverse events
tumor size in lymphoma patients not anergic to recall antigens pre-trial (lymphoma): reduction or stabilization in tumor sized in all patients with lymphoma who were not anergic to recall antigens pre-trial; also recorded: shrinkage or stabilization in all patients with lymphoma who were not anergic to recall antigens pre-trial
percentages of monocytes expressing PD-L1 [1]: reduced the percentages of monocytes expressing PD-L1
survival rates (NS-1 mouse myeloma): significantly increased survival rates
tumor response of second mouse after intratumoral injection ([2]; 30 mg/kg i.t. on day 55 after s.c. injections, seen on day 66): complete regression of the tumor
tumor size of remaining mouse after series of i.t. injections ([2]; 30 mg/kg i.t. on days 55, 68, 82): decrease in tumor size
start of tumor regression in the remaining mouse ([2]; 30 mg/kg i.t. on days 55, 68, 82 after s.c. injections): ~70 day post-tumor cell injection
complete tumor regression after s.c. injections ([2]; 30 mg/kg s.c. at days 38, 46, 52, three mice, at day 56 post-tumor cell injection): one of the mice demonstrated a complete tumor regression
local or systemic side effects ([2]; i.t. injections of 30 mg/kg in the mouse): not associated with any perceivable local or systemic side effects
IFN-γ production [3]: increased IFN-γ production
IL-10 expression [3]: depressed IL-10 expression
T cell activation and proliferation [3]: increased T cell activation and proliferation
percent survival (Cloudman S-91 melanomas): increase the percent survival
tumor growth (tumor size) ([4]; High dose: 30 mg/kg s.c. once a week from day 15): delayed tumor growth temporarily
tumor growth (tumor size) ([4]; Low dose: 30 ng/kg s.c. once a week from day 15): delayed tumor growth temporarily
toxicity ([4]; low dose or high dose β-alethine alone): no obvious toxicity was observed
toxicity in animals [5]: non-toxic
number of molecule per cell (mean fluorescent intensity MFI) on cells that continued to have checkpoint molecule expression ([6]; 48 hours after one s.c. injection of 30 mg/kg vs before): specific reduction
percentages of CD4 and CD8 T cells expressing PD-1, Lag3, or Tim3 ([6]; FIG. 1A, 48 hours after one s.c. injection of 30 mg/kg vs before): reduced percentages
% CD8+ of white blood cells [6, 7]: 0.9%
CD4-Lag3, percentage of cells expressing checkpoint inhibitor [6, 7]: 2.1%
CD4-PD1, percentage of cells expressing checkpoint inhibitor [6, 7]: 4.4%
CD4-Tim3, percentage of cells expressing checkpoint inhibitor [6, 7]: 1.3%
CD8-Lag3, percentage of cells expressing checkpoint inhibitor [6, 7]: 0.1%
CD8-PD1, percentage of cells expressing checkpoint inhibitor [6, 7]: 1.2%
CD8-Tim3, percentage of cells expressing checkpoint inhibitor [6, 7]: 0.2%
CD4-Lag3+ checkpoint inhibitor expression [6, 8]: 55 MFI
CD4-PD1+ checkpoint inhibitor expression [6, 8]: 153 MFI
CD4-Tim3+ checkpoint inhibitor expression [6, 8]: 93 MFI
CD8-Lag3+ checkpoint inhibitor expression [6, 8]: 627 MFI
CD8-PD1+ checkpoint inhibitor expression [6, 8]: 259 MFI
CD8-Tim3 checkpoint inhibitor expression [6, 8]: 1283 MFI

IPH2101: anti-KIR antibody (Innate Pharma)
anti-tumor activity (multiple myeloma): demonstrated anti-tumor activity

lirlumab: anti-KIR antibody (Innate Pharma)
anti-tumor activity (multiple myeloma): demonstrated anti-tumor activity
